# Test results: patent publication US12065421B2, “Inhibitors of oplophorus luciferase-derived bioluminescent complexes” (priority 2018, dated 2024)
# Target: T1, NanoBiT® HiBiT non-luminescent peptide and LgBiT non-luminescent polypeptide (HiBiT/LgBiT bioluminescent complex) (Oplophorus gracilirostris, UniProt Q9GV45, A31E/A60N/A81I/C191F/D135N/E192K/F58L/F95D/G184S/G42A/G62A/G78A/G94A/G98A/H120P/I103V/I117V/I134L/K70R/L176M/L195S/L54V/L73R/L99Q/M102E/N171T/N193K/P142E/Q151K/Q38E/Q45L/T186S/V71I/Y165I)
# T1 construct: fused on or other part: N-terminal Met-Val on LgBiT in place of the signal peptide (residues 1-27); The chain is split between residues 184 and 185 into LgBiT and the 11-residue HiBiT peptide (residues 185-195); C-terminal A196 is absent
# T1 sequence (Q9GV45 other isoform, or with tags, fused parts or gaps with the stated changes): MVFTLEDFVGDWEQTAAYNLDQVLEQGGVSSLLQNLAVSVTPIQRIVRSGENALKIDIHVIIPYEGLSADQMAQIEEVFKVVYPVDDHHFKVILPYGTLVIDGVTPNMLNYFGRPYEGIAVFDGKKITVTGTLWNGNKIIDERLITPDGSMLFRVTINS
# Assay: biochemical
row,Structure (SMILES),IC50 [nM]
1,"Cc1ccc(S(=O)(=O)Nc2ccccc2C(=O)Nc2ccccc2Br)cc1 [JRW-1282, N-(2-bromophenyl)-2-((4-methylphenyl)sulfonamido)benzamide]",200
2,"Cc1ccc(S(=O)(=O)Nc2ccccc2C(=O)Nc2cccc(Br)c2)cc1 [JRW-1283, N-(3-bromophenyl)-2-((4-methylphenyl)sulfonamido)benzamide]",46
3,"Cc1ccc(NC(=O)c2ccccc2NS(=O)(=O)c2ccc(C(F)(F)F)cc2)cc1 [JRW-1284, N-(p-tolyl)-2-((4-(trifluoromethyl)phenyl)sulfonamido)benzamide]",710
4,"COc1ccc(S(=O)(=O)Nc2ccccc2C(=O)Nc2ccc(C)cc2)cc1 [JRW-1285, 2-((4-methoxyphenyl)sulfonamido)-N-(p-tolyl)benzamide]",360
5,"Cc1ccc(NC(=O)c2ccccc2NS(=O)(=O)c2ccc(Br)cc2)cc1 [JRW-1287, 2-((4-bromophenyl)sulfonamido)-N-(p-tolyl)benzamide]",150
6,"Cc1ccc(S(=O)(=O)Nc2ccccc2C(=O)Nc2ccc(-c3ccccc3)cc2)cc1 [JRW-1288, N-([1,1′-biphenyl]-4-yl)-2-((4-methylphenyl)sulfonamido)benzamide]",110
7,"COc1ccccc1NC(=O)c1ccccc1NS(=O)(=O)c1ccc(C)cc1 [JRW-1292, N-(2-methoxyphenyl)-2-((4-methylphenyl)sulfonamido)benzamide]",590
8,"Cc1ccc(S(=O)(=O)Nc2ccccc2C(=O)Nc2cccc(-c3ccccc3)c2)cc1 [JRW-1297, N-([1,1′-biphenyl]-3-yl)-2-((4-methylphenyl)sulfonamido)benzamide]",100
9,"COc1cccc(NC(=O)c2ccccc2NS(=O)(=O)c2ccc(C)cc2)c1 [JRW-1299, N-(3-methoxyphenyl)-2-((4-methylphenyl)sulfonamido)benzamide]",90
10,"COc1ccc(NC(=O)c2ccccc2NS(=O)(=O)c2ccc(C)cc2)cc1 [JRW-1300, N-(4-methoxyphenyl)-2-((4-methylphenyl)sulfonamido)benzamide]",43
11,"CCN(c1ccccc1C(=O)Nc1ccc(OC)cc1)S(=O)(=O)c1ccc(C)cc1 [JRW-1325, 2-((N-ethyl-4-methylphenyl)sulfonamido)-N-(4-methoxyphenyl)benzamide]",1300
12,"Cc1ccc(NC(=O)c2ccccc2NS(=O)(=O)c2cccc(OC(F)(F)F)c2)cc1 [JRW-1328, N-(p-tolyl)-2-((3-(trifluoromethoxy)phenyl)sulfonamido)benzamide]",1100
13,"Cc1ccc(S(=O)(=O)Nc2cc(F)ccc2C(=O)Nc2cc3ccccc3s2)cc1 [JRW-1346, N-(benzo[b]thiophen-2-yl)-4-fluoro-2-((4-methylphenyl)sulfonamido)benzamide]",14
14,"Cc1ccc(S(=O)(=O)Nc2ccc(F)cc2C(=O)Nc2cc3ccccc3s2)cc1 [JRW-1347, N-(benzo[b]thiophen-2-yl)-5-fluoro-2-((4-methylphenyl)sulfonamido)benzamide]",0.8
15,"Cc1ccc(S(=O)(=O)Nc2ccc(C(F)(F)F)cc2C(=O)Nc2cc3ccccc3s2)cc1 [JRW-1388, N-(benzo[b]thiophen-2-yl)-2-((4-methylphenyl)sulfonamido)-5-(trifluoromethyl)benzamide]",0.58
